Several values for one entry are separate records, joined by “and”; a condition that tells them apart may be missing. Equal values may be shown once.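 Each compound was tested at five concentrations against cells in 96-well plates for 48 hours. The concentration for 50% growth inhibition is given as GI50. TGI: concentration producing complete growth inhibition.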
Tests used:
Experiment in all cases: inhibition of tumour cell growth, NCI panel, 48 h
[1] = tested on: ACHN renal
[2] = tested on: COLO 205 colon
[3] = tested on: DU-145 prostate
[4] = tested on: HCT-116 colon
[5] = tested on: IGROV1 ovarian
[6] = tested on: NCI/ADR-RES ovarian
[7] = tested on: OVCAR-5 ovarian
[8] = tested on: RPMI-8226 leukemia
[9] = tested on: SK-OV-3 ovarian
[10] = tested on: SNB-75 CNS

SMILES	GI50 [1]	TGI [1]	GI50 [2] [µM]	TGI [2] [µM]	GI50 [3] [µM]	TGI [3]	GI50 [4] [µM]	TGI [4]	GI50 [5] [µM]	TGI [5]	GI50 [6] [µM]	TGI [6] [µM]	GI50 [7] [µM]	TGI [7]	GI50 [8] [µM]	TGI [8]	GI50 [9] [µM]	TGI [9] [µM]	GI50 [10] [µM]	TGI [10]
Nc1c(C(=O)c2ccccc2)cnn1-c1ccc(F)cc1	> 25 µM	> 25 µM	> 25	> 25	> 25	> 25 µM	> 25	> 25 µM	> 25	> 25 µM	> 25	> 25	> 25	> 25 µM	> 25	> 25 µM	> 25	> 25	> 25	> 25 µM
C/C(=N\NC(=S)N1CCCCCC1)c1ccccn1	–	5.45 µM and 2.73 µM	–	0.0286	0.408	6.29 µM and 3.25 µM	–	3.16 µM and 4.28 µM	< 0.0122	2.66 µM and 6.59 µM	–	3.32	< 0.0165	2.67 µM and 3.98 µM	–	0.321 µM and 0.132 µM	–	2.28	0.277	1.18 µM and 2.54 µM
Cn1c(=O)c(Oc2ccc(F)cc2)cc2cnc(NC3CCOCC3)nc21	> 25 µM	> 25 µM	> 25	> 25	> 25	> 25 µM	> 25	> 25 µM	> 25	> 25 µM	> 25	> 25	> 25	> 25 µM	> 25	> 25 µM	> 25	> 25	> 25	> 25 µM
COc1ccccc1Nc1ncc(-c2ccccc2)o1	> 25 µM	> 25 µM	> 25	> 25	> 25	> 25 µM	> 25	> 25 µM	> 25	> 25 µM	> 25	> 25	> 25	> 25 µM	> 25	> 25 µM	> 25	> 25	> 25	> 25 µM
CC12CCC3c4ccc(O)cc4CCC3C1C/C(=N\O)C2O (stereo not drawn)	–	> 100 µM	–	> 100	–	> 100 µM	–	> 100 µM	–	> 100 µM	–	> 100	–	> 100 µM	–	> 100 µM	–	> 100	–	> 100 µM
CN(C)C(=S)Sc1ccc([N+](=O)[O-])cc1[N+](=O)[O-]	1.67 µM	3.05 µM	0.8	3.02	2.59	6.89 µM	1.54	3.7 µM	1.26	13.1 µM	4.73	16.8	6.01	18.1 µM	1.39	6.79 µM	12	31.2	7.53	20.5 µM
Nc1ccn(C2OC(CO)C(O)C2O)c(=O)n1 (stereo not drawn)	0.195 µM and 0.532 µM	> 100 µM and > 35 µM and 151 µM	–	> 500	0.536	–	0.142	> 500 µM	37.9	> 500 µM	0.532	–	–	> 100 µM and 392 µM and > 500 µM	3.75	> 500 µM	2.7	> 500	–	> 500 µM
COc1ccc(C(O)(CCC(C)C)C(CN2CCOCC2)c2ccc(Cl)cc2)cc1 (stereo not drawn)	14.4 µM	27.9 µM	12.7	30.9	15.4	29.5 µM	4.68	19.1 µM	14.2	54.2 µM	11.1	34.2	12.2	25.7 µM	8.76	31.2 µM	21.8	75.8	13	35.2 µM
COc1cc(/C=C/C(=O)c2cccc(-n3cc(-c4ccc(Cl)cc4)[nH]c3=O)c2)ccc1O	2.19 µM	4.95 µM	4.88	16	2.6	7.55 µM	1.57	3.82 µM	2	5.61 µM	2.78	> 30.5	6.45	15.1 µM	1.33	3.76 µM	4.78	> 30.2	2.36	10.2 µM
CCc1c(Cl)c(C)cc(O)c1Cl	–	60.6 µM	–	> 100	–	> 100 µM	–	> 100 µM	–	> 100 µM	–	> 100	–	> 100 µM	–	57.5 µM	–	> 100	–	> 100 µM
COc1ccc(C2=C(c3ccc(OC)cc3)C(=O)N3CCCC3C2)cc1 (stereo not drawn)	15 µM	> 100 µM	7.43	> 100	13.5	> 100 µM	2.96	32.8 µM	18.1	> 100 µM	10.3	> 100	> 83.7	> 100 µM	> 100	> 100 µM	26.4	> 100	15.6	> 72.7 µM
Cc1nc2cc(Nc3nc(Nc4ccc(F)cc4)nc(-c4cccs4)n3)ccc2n1Cc1ccccc1	3.86 µM	59.9 µM	3.7	12.9	7.7	> 100 µM	3.35	13.3 µM	3.62	12.9 µM	3.66	32.1	9.62	27.3 µM	2.07	5.91 µM	33.4	> 100	2.94	> 100 µM
CN(C)c1ccc(N=Nc2ccccn2)c(O)c1	0.271 µM	> 100 µM	0.345	> 34.8	0.481	> 100 µM	0.254	> 71.7 µM	0.317	> 100 µM	0.281	> 27.6	0.992	> 100 µM	0.348	> 100 µM	0.42	> 28.3	0.453	96.9 µM
Cc1cc2cc3c(=O)[nH]c(=O)[nH]c3nc2cc1C	–	> 100 µM	–	> 100	–	> 100 µM	–	> 100 µM	–	> 100 µM	–	> 100	–	> 100 µM	–	> 100 µM	–	> 100	–	90 µM
COc1ccc(Cn2c(N)c(S(=O)(=O)c3ccc(Cl)cc3)c3nc(C#N)c(C#N)nc32)cc1	6.22 µM	> 50 µM	> 50	> 50	20.2	> 50 µM	> 50	> 50 µM	21.6	> 50 µM	1.15	6	12.2	> 50 µM	22.5	> 50 µM	10.8	49.4	> 50	> 50 µM
COc1cc(/C=C\c2cc(OC)c(OC)c(OC)c2)cc(N/C=C\C(=O)c2cc(OC)c(OC)c(OC)c2)c1OC	3.99 µM	> 100 µM	2.31	5.7	3.64	> 100 µM	2.78	> 100 µM	6.06	> 100 µM	3.12	> 100	3.64	> 100 µM	3.04	> 100 µM	2.91	> 100	1.39	4.81 µM
COc1cc2c3c(c1OC)-c1cc4c(cc1CC3(C#N)N(C(=O)c1ccccc1)CC2)OCO4 (stereo not drawn)	–	> 97.2 µM	–	> 100	–	> 100 µM	–	> 87.2 µM	–	> 82.3 µM	–	> 100	–	> 56.2 µM	–	> 100 µM	–	44.4	–	28.1 µM
CS(=O)(=O)Nc1cc(-c2ccc3ncnc(Nc4c(Cl)ccc5c4OCO5)c3c2)cnc1Cl	0.186 µM	> 48.1 µM	0.263	1.35	0.24	5.01 µM	0.269	1.97 µM	0.0332	0.209 µM	0.477	4.19	0.164	2.1 µM	0.148	0.566 µM	0.131	0.759	–	0.0972 µM

— PubChem BioAssay (NCI)
